# Source: patent publication US11155557B2, “Pyrazolopyrimidine compounds and methods of use thereof” (Genentech, Inc., priority 2016, dated 2021)
# Like-named read-outs stand apart in the source and are kept apart here.
# Legend:
# [1] = target: isolated recombinant JAK1 kinase domain (Homo sapiens (Human), UniProt P23458); assay: JAK1 enzyme assay (Caliper LabChip, Ki); type: biochemical
# Method: The activity of the isolated recombinant JAK1 and JAK2 kinase domain was measured by monitoring phosphorylation of a peptide derived from JAK3 ([…] fluorescently labeled on the N-terminus with 5-carboxyfluorescein) using the Caliper LabChip R technology (Caliper Life Sciences, Hopkinton, Mass.).
# [2] = system: JAK1-dependent STAT6 phosphorylation in BEAS-2B human bronchial epithelial cells; assay: JAK1 pathway assay: IL-13 stimulated STAT6 phosphorylation in BEAS-2B cells; type: cell-based; conditions: Homo sapiens, BEAS-2B, read-out: IL-13 p-STAT6 BEAS-2B IC50
# How it was run: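 BEAS-2B bronchial epithelial cells plated one day before, run in complete growth medium. Phospho-STAT6 in lysates measured by MesoScale Discovery; EC50 reported.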
# [3] = target: isolated recombinant JAK2 kinase domain (Homo sapiens (Human), UniProt O60674); assay: JAK2 enzyme assay (Caliper LabChip, Ki); conditions: read-out: JAK2 Ki
# [4] = BEAS-2B cells, IL-13 stimulation
# isolated recombinant JAK1 kinase domain, sequence (P23458 875-1153): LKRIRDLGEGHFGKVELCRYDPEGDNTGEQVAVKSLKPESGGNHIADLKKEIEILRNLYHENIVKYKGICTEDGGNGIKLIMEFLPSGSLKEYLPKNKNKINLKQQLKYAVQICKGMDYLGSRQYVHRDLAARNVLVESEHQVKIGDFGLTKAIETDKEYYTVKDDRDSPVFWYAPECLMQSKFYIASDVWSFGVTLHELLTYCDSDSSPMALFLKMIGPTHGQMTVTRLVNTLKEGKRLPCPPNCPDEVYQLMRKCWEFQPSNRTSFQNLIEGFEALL
# isolated recombinant JAK2 kinase domain, sequence (O60674 849-1124): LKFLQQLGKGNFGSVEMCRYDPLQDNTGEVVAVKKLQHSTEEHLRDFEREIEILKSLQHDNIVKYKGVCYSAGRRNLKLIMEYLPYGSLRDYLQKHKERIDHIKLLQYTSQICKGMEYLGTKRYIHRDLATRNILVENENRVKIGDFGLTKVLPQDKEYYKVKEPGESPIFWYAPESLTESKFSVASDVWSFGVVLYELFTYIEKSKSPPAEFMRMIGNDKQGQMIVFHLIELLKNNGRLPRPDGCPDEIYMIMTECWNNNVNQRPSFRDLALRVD
Compound,Ki [1],"IC50 [2, 4]",Ki [3],IC50 [2]
"NC(=O)c1cc2cc(OC(F)F)c(-c3nn(CC(=O)N4CCC(N5CCOCC5)CC4)cc3NC(=O)c3cnn4cccnc34)cc2s1 [Example 56, N-[3-[2-carbamoyl-5-(difluoromethoxy)benzothiophen-6-yl]-1-[2-(4-morpholino-1-piperidyl)-2-oxo-ethyl]pyrazol-4-yl]pyrazolo[1,5-a]pyrimidine-3-carboxamide]",0.39 nM,> 333 nM,0.37 nM,–
"O=C(Nc1cn(CC(=O)N2CCC(N3CCOCC3)CC2)nc1-c1cc2ccccc2cc1OC(F)F)c1cnn2cccnc12 [Example 57, N-[3-[3-(difluoromethoxy)-2-naphthyl]-1-[2-(4-morpholino-1-piperidyl)-2-oxo-ethyl]pyrazol-4-yl]pyrazolo[1,5-a]pyrimidine-3-carboxamide]",0.56 nM,17 nM,0.87 nM,–
"O=C(Nc1cn(CC(=O)N2CCC(N3CCOCC3)CC2)nc1-c1cc2c(cc1OC(F)F)NCCS2)c1cnn2cccnc12 [Example 58, N-[3-[6-(difluoromethoxy)-3,4-dihydro-2H-1,4-benzothiazin-7-yl]-1-[2-(4-morpholino-1-piperidyl)-2-oxo-ethyl]pyrazol-4-yl]pyrazolo[1,5-a]pyrimidine-3-carboxamide]",0.19 nM,54 nM,0.22 nM,–
"O=C(Nc1cn(CC(=O)N2CCC(CN3CCOCC3)CC2)nc1-c1cc2c(cc1OC(F)F)NCCS2)c1cnn2cccnc12 [Example 59, N-[3-[6-(difluoromethoxy)-3,4-dihydro-2H-1,4-benzothiazin-7-yl]-1-[2-[4-(morpholinomethyl)-1-piperidyl]-2-oxo-ethyl]pyrazol-4-yl]pyrazolo[1,5-a]pyrimidine-3-carboxamide]",0.22 nM,25 nM,0.23 nM,–
"N#Cc1cc2cc(OC(F)F)c(-c3nn(CC(=O)N4CCC(CN5CCOCC5)CC4)cc3NC(=O)c3cnn4cccnc34)cc2s1 [Example 60, N-[3-[2-cyano-5-(difluoromethoxy)benzothiophen-6-yl]-1-[2-[4-(morpholinomethyl)-1-piperidyl]-2-oxo-ethyl]pyrazol-4-yl]pyrazolo[1,5-a]pyrimidine-3-carboxamide]",0.36 nM,12 nM,0.35 nM,–
"NC(=O)c1cc2cc(OC(F)F)c(-c3nn(CC(=O)N4CCC(CN5CCOCC5)CC4)cc3NC(=O)c3cnn4cccnc34)cc2s1 [Example 61, N-[3-[2-carbamoyl-5-(difluoromethoxy)benzothiophen-6-yl]-1-[2-[4-(morpholinomethyl)-1-piperidyl]-2-oxo-ethyl]pyrazol-4-yl]pyrazolo[1,5-a]pyrimidine-3-carboxamide]",0.64 nM,> 333 nM,0.78 nM,–
"NC(=O)c1cc2cc(OC(F)F)c(-c3nn(CC(=O)N4CCC(=O)CC4)cc3NC(=O)c3cnn4cccnc34)cc2s1 [Example 62, N-[3-[2-carbamoyl-5-(difluoromethoxy)benzothiophen-6-yl]-1-[2-oxo-2-(4-oxo-1-piperidyl)ethyl]pyrazol-4-yl]pyrazolo[1,5-a]pyrimidine-3-carboxamide]",0.38 nM,–,0.24 nM,> 333 nM
"CN(CCC#N)C1CCN(C(=O)Cn2cc(NC(=O)c3cnn4cccnc34)c(-c3cc4ccccc4cc3OC(F)F)n2)CC1 [Example 63, N-[1-[2-[4-[2-cyanoethyl(methyl)amino]-1-piperidyl]-2-oxo-ethyl]-3-[3-(difluoromethoxy)-2-naphthyl]pyrazol-4-yl]pyrazolo[1,5-a]pyrimidine-3-carboxamide]",0.4 nM,14 nM,0.58 nM,–
"N#CC1(CNC2CCN(C(=O)Cn3cc(NC(=O)c4cnn5cccnc45)c(-c4cc5sc(C(N)=O)cc5cc4OC(F)F)n3)CC2)CC1 [Example 64, N-[3-[2-carbamoyl-5-(difluoromethoxy)benzothiophen-6-yl]-1-[2-[4-[(1-cyanocyclopropyl)methylamino]-1-piperidyl]-2-oxo-ethyl]pyrazol-4-yl]pyrazolo[1,5-a]pyrimidine-3-carboxamide]",0.29 nM,> 1000 nM,0.35 nM,–
